This is an account of results in patent US20240391930A1, “SPIROCYCLIC BICYCLIC MODULATORS OF CHOLESTEROL BIOSYNTHESIS AND THEIR USE FOR PROMOTING REMYELINATION” (GENENTECH, INC., priority 2021, published 2024).

pEC50, pKi: −log10 of the molar value.

In assay [1] the test system is zymostenol accumulation in EpiSC-derived OPCs (EBP). As to the kind of experiment: GC/MS-based sterol profiling (zymostenol accumulation). Format: cell-based. The conditions noted are these: Mus musculus, 24 hours, 8 doses from 0.15 nM to 333 nM, read-out: Zymostenol GCMS EC50. As for the experimental part:
(§1) To assess effects of treatments on OPCs, all treatments were assayed in two or more independent platings of epiblast stem cell-derived OPCs (EpiSC). EpiSC-derived OPCs were obtained using in vitro differentiation protocols and culture conditions described previously (Najm et al, 2011, Nature Methods). OPCs were expanded and frozen down in aliquots. OPCs were thawed into growth conditions for at least one passage before use in further assays.
Sterols were monitored using a modified Folch wash protocol (Hubler et al, 2018, Nature). EpiSC-derived OPCs were plated at 100,000 cells per well in PO- and laminin-coated 96-well plates in N2B27 media without growth factors. After 24 hours, cells were rinsed with saline and plates were frozen. Cholesterol-d7 standard was then added to each well before drying under nitrogen stream and derivatization with 55 μl of bis(trimethylsilyl) trifluoroacetamide. After derivatization, 2 μl were analyzed by gas chromatography/mass spectrometry using an Agilent 5973 Network Mass Selective Detector equipped with a 6890 gas chromatograph system and a HP-5MS capillary column (30 m×0.25 mm×[…]). Samples were analyzed in full scan mode using electron impact ionization; ion fragment peaks were integrated to calculate sterol abundance, and quantitation was relative to cholesterol-d7. The following ion fragments were used to quantitate each metabolite: cholesterol-d7 (465), FF-Mas (482), cholesterol (368), zymostenol (458), zymosterol (456), Desmosterol (456, 343), 7-dehydrocholesterol (456, 325), lanosterol (393), lathosterol (458), 14-dehydrozymostenol (456, 351). […] All standards were obtained from Avanti Polar Lipids unless otherwise indicated. Calibration curves were generated by injecting varying concentrations of sterol standards and maintaining a fixed amount of cholesterol-D7. For normalized zymostenol accumulation results, the total amount of zymostenol measured after drug treatment was divided by the total amount of zymostenol accumulated after 24 hr treatment with 100 nM positive control reference.

A further assay deals with EpiSC-derived OPCs. As to the kind of experiment: In vitro phenotypic screening of OPCs (MBP high-content imaging). Format: cell-based. The conditions noted are these: Mus musculus, 72 h; percentage of MBP-positive oligodendrocytes, 3 days, 0.5 nM to 1000 nM; read-out: OPC EC50. As for the experimental part: as §1
EpiSC-derived OPCs were grown and expanded in poly-L-ornithine (PO) and laminin-coated flasks in N2B27 media (DMEM/F12 (Gibco), N2-MAX (R&D Systems), B-27 (ThermoFisher), and GlutaMax (Gibco)) supplemented with FGF2 ([…], R&D systems, 233-FB-025) and PDGF-AA ([…], R&D systems, 233-AA-050) before harvesting for experiments. The cells were seeded onto poly-L-ornithine or poly-D-lysine coated CellCarrier Ultra plates (PerkinElmer) coated with laminin (Sigma, L2020) at a density of 150,000/cm^2 in N2B27 media without growth factors. For dose-response testing, a 1000× compound stock in dimethyl sulphoxide (DMSO) was added to assay plates, resulting in 8-point dose curves with final concentrations between 1000 nM and 0.5 nM. Positive controls and DMSO vehicle controls were included in each assay plate. Cells were incubated under standard conditions (37° C., 5% CO2) for 3 days and fixed with 4% paraformaldehyde (PFA) in phosphate buffered saline (PBS) for 20 min. Fixed plates were washed with PBS, permeabilized with 0.1% Triton X-100, and blocked with 10% donkey serum (v/v) in PBS for 40 min. Then, cells were labelled with MBP antibodies (Abcam, ab7349; 1:200) for 2 h at room temperature, washed with PBS, and stained with Alexa Fluor conjugated secondary antibodies (1:500) for 45 min. Nuclei were visualized by DAPI staining (Sigma; 1 μg/ml), followed by further PBS washes.
Cells and cell culture plates were imaged on the Operetta High Content Imaging and Analysis system (PerkinElmer). Analysis (PerkinElmer Harmony and Columbus software) began by identifying intact nuclei stained by DAPI. The peri-nuclear region of each cell was then cross-referenced with the […] (MBP) stain to identify oligodendrocyte nuclei, and from this the percentage of oligodendrocytes was calculated.

The target of assay [2] is T1, human emopamil binding protein and human 7-dehydrocholesterol reductase (hEBP-DHCR7) (Homo sapiens, UniProt Q15125).
T1 construct: expressed in transfected cells; host or cells: HEK 293 cells, transient transfection with 2 DNA constructs
T1 sequence (Q15125 whole entry): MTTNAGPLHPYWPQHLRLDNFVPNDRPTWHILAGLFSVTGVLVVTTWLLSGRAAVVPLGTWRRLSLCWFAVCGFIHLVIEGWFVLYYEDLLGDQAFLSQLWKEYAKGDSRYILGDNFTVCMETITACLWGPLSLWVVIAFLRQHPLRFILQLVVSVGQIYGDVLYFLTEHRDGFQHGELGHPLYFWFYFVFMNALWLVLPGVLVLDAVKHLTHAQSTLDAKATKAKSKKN
The assay is described as follows: hEBP-DHCR7 radioligand filtration binding assay. The conditions noted are these: membranes of HEK293 co-expressing hEBP and DHCR7; [3H] 2-thia-6-azaspiro[3.4]octane radioligand; 8 doses 0.06 to 5000 nM. As for the experimental part: Membrane Preparation: human emopamil binding protein and human 7-dehydrocholesterol reductase co-expressing cells were generated by transient transfecting host human embryonic kidney (HEK) 293 cells with 2 DNA constructs containing each protein's coding sequence. Cells were suspension cultured at 37° C. with 5% CO2 in […] 293 Expression Medium (Thermofisher). Whole cell membrane was prepared by harvesting the cell pellet, adding cold membrane buffer (50 mM Tris, pH7.5, lx Roche COMPLETE EDTA-free protease inhibitor cocktail) 10 times volume of the cell pellets weight, lysing cell pellet on ice by using Dounce homogenizer, spinning at 200 g 4° C. for 15 min, collecting supernatant and spinning again at 25000 g 4° C. for 50 min, transferring pellet to Dounce homogenizer, re-suspending pellet by homogenizing in membrane buffer on ice to reach ˜25 mg/mL, then keeping whole cell membrane aliquots at −80° C.
Compounds were prepared in a 96-well U bottom plate using an Echo550 machine and 10 mM compound DMSO stock solution, followed by an 8-dose 5-fold serial dilutions protocol with final testing compound concentration ranging from 0.06 to 5000 nM, with DMSO back fill to 100 nL/well and n=2. […] The UniFilter-96 GF/B plates were pre-treated by adding 50 µl/well of 0.3% (v/v) PEI to UniFilter-96 GF/B plates. The plates were sealed and incubated at 4° C. for 3 hrs. Then, the plates were washed with ice-cold assay buffer 3 times. The radioligand binding assay was prepared by adding assay buffer diluted hEBP-DHCR7 membrane at 66.7 μg/ml×150 l/well into the 96-well compound plate to reach 10 μg membrane per well. Then, the assay buffer diluted [3H]—((S)-6-(2-Methyl-3-(6-(trifluoromethyl)pyridin-3-yl)propyl)-2-thia-6-azaspiro[3.4]octane 2,2-dioxide or (R)-6-(2-Methyl-3-(6-(trifluoromethyl)pyridin-3-yl)propyl)-2-thia-6-azaspiro[3.4]octane 2,2-dioxide) was added at 25 nM×50 l/well. Following this, the plate was centrifuged at 1000 rpm for 30 secs. The plate was then sealed and agitated at 600 rpm at 22° C. for 5 min, and then incubated at 22° C. for 3 hrs. The incubation was stopped by transferring the binding solution to the pre-treated UniFilter-96 GF/B plate, vacuum filtrated, and then washed four times with ice-cold assay buffer. Following this, the plates were dried at 37° C. for 45 min. The plates were then sealed at the bottom. 40 µl/well of scintillation cocktail was added to the plates. A MicroBeta2 microplate counter was then used to read the plate and analyze the data. For reference and test compounds, the results are expressed as % Inhibition, using the normalization equation: N=100−100×(U−C2)/(C1−C2), where U is the unknown value, C1 is the average of high controls, and C2 is the average value of low controls. The IC50 was determined by fitting percentage of inhibition as a function of compound concentrations with Hill equation using XLfit. Results are expressed as hEBP-DHCR7 Ki (uM) in Table 4. Ki was calculated as described above; * indicates isolated isomer or isomers, but that the stereochemistry has not been assigned.

The pEC50 is the negative decadic logarithm of the EC50, by convention in mol/L. One may read the pKi as −log10 of the Ki, conventionally taken in molar units. Consider `CC(C)n1nc(-c2cncc(C(F)(F)F)c2)cc1[C@H]1[C@@H]2C[C@@H](N3CCC4(C3)CS(=O)(=O)C4)C[C@@H]21` (single isomer, unassigned) [Compound 3], for which the pEC50 is 8.41 in assay [1] and 7.47 with EpiSC-derived OPCs. This compound also gave a pKi in assay [2] of 7.79.

With `CC(C)n1nc(-c2cncc(C(F)(F)F)c2)cc1[C@H]1[C@@H]2C[C@@H](N3CC[C@@]4(CCS(=O)(=O)C4)C3)C[C@@H]21` (single isomer, unassigned) [Compound 7*], the negative logarithm of the EC50 (pEC50) was 8.05 in assay [1] and 7.43 in the assay on EpiSC-derived OPCs. This compound had a pKi in assay [2] of 7.76.

`CC(C)n1nc(-c2cncc(OC(F)F)c2)cc1[C@H]1[C@@H]2C[C@@H](N3CCC4(CC3)CS(=O)(=O)C4)C[C@@H]21` (single isomer, unassigned) [Compound 45*]: the pEC50 in assay [1] was 8.09; in the assay on EpiSC-derived OPCs, 7.85. Moreover, the pKi in assay [2] was 6.88.

Consider `CCn1nc(-c2cncc(F)c2)cc1[C@H]1[C@@H]2C[C@@H](N3CCC4(C3)CS(=O)(=O)C4)C[C@@H]21` (single isomer, unassigned) [Compound 68*], for which the pEC50 in assay [1] was 7.85; in the assay with EpiSC-derived OPCs, 7.22. The compound further gave a pKi in assay [2] of 7.06.

Regarding `CCn1nc(-c2cncc(C(F)(F)F)c2)cc1[C@H]1[C@@H]2C[C@@H](N3CCC4(CC3)CS(=O)(=O)C4)C[C@@H]21` (single isomer, unassigned) [Compound 53*], the results for the pEC50 (in assay [1]; in the assay on EpiSC-derived OPCs) were 8.17 and 7.48, respectively. The compound further gave a pKi in assay [2] of 7.01.

Turning to `CC(C)n1nc(C2CCC(F)(F)CC2)cc1[C@H]1[C@@H]2C[C@@H](N3CCC4(C3)CS(=O)(=O)C4)C[C@@H]21` [Compound 108, 6-((1R,3s,5S,6r)-6-(3-(4,4-Difluorocyclohexyl)-1-isopropyl-1H-pyrazol-5-yl)bicyclo[3.1.0]hexan-3-yl)-2-thia-6-azaspiro[3.4]octane 2,2-dioxide], the negative-log EC50 (pEC50) in assay [1] was 7.97; with EpiSC-derived OPCs it was 6.99. Further, the pKi in assay [2] is 7.67.

As to `CC(C)n1nc([C@H]2CC[C@](O)(C(F)(F)F)CC2)cc1[C@H]1[C@@H]2C[C@@H](N3CCC4(C3)CS(=O)(=O)C4)C[C@@H]21` (single isomer, unassigned) [Compound 104*], the pEC50 in assay [1] was 7.59; with EpiSC-derived OPCs, 6.76. In addition, the pKi in assay [2] is 6.79.

Take `CC(C)n1nc(-c2cccc(C(F)(F)F)c2)nc1[C@H]1[C@@H]2C[C@H](N3CCC4(CC3)CS(=O)(=O)C4)C[C@@H]21` [Compound 74, 7-((1R,3r,5S,6r)-6-(1-isopropyl-3-(3-(trifluoromethyl)phenyl)-1H-1,2,4-triazol-5-yl)bicyclo[3.1.0]hexan-3-yl)-2-thia-7-azaspiro[3.5]nonane 2,2-dioxide]: the pEC50 in assay [1] is 8.41; with EpiSC-derived OPCs, 7.89.

For `CCn1nc(-c2ccccn2)cc1[C@H]1[C@@H]2C[C@H](N3CCC4(C3)CS(=O)(=O)C4)C[C@@H]21` [Compound 73, 6-((1R,3r,5S,6r)-6-(1-ethyl-3-(pyridin-2-yl)-1H-pyrazol-5-yl)bicyclo[3.1.0]hexan-3-yl)-2-thia-6-azaspiro[3.4]octane 2,2-dioxide], the pEC50 was 7.49 in assay [1] and 7.04 in the assay on EpiSC-derived OPCs. The compound further gave a pKi in assay [2] of 7.23.

In the case of `CC(C)n1nc(-c2cncc(OC(F)F)c2)cc1[C@H]1[C@@H]2C[C@H](N3CCC4(CC3)CS(=O)(=O)C4)C[C@@H]21` (single isomer, unassigned) [Compound 46*], the figures for the pEC50 (in assay [1]; in the assay on EpiSC-derived OPCs) were 7.62 and 7.36, respectively. The same compound had a pKi in assay [2] of 7.46.

On to `CCn1nc(-c2cncc(F)c2)cc1[C@H]1[C@@H]2C[C@H](N3CCC4(C3)CS(=O)(=O)C4)C[C@@H]21` (single isomer, unassigned) [Compound 69*], for which the values for the pEC50 (in assay [1]; in the assay with EpiSC-derived OPCs) were 8.36 and 7.57, respectively. The compound further gave a pKi in assay [2] of 7.46.

As for `CC(C)n1nc(C(F)(F)F)cc1[C@H]1[C@@H]2C[C@@H](N3CCC[C@@]4(CCS(=O)(=O)C4)C3)C[C@@H]21` (single isomer, unassigned) [Compound 92*], the pEC50 in assay [1] is 7.35; in the assay with EpiSC-derived OPCs, 7.23.

As to `CC(C)(C)n1nc(C(F)(F)F)cc1[C@H]1[C@@H]2C[C@H](N3CCC4(CC3)CS(=O)(=O)C4)C[C@@H]21` [Compound 56, 7-((1R,3r,5S,6r)-6-(1-(tert-butyl)-3-(trifluoromethyl)-1H-pyrazol-5-yl)bicyclo[3.1.0]hexan-3-yl)-2-thia-7-azaspiro[3.5]nonane 2,2-dioxide], the pEC50 in assay [1] is 8.24; with EpiSC-derived OPCs it was 7.72.
